pIC50: −log10 of the molar value.
Legend:
[1] = biological target: Beta5 (purified human constitutive proteasome) (Homo sapiens, UniProt P28074); assay: Determination of Beta5 activity (fluorescence intensity assay, Suc-LLVY-AMC); assay type: biochemical
Description: Determination of Beta5 Activity
Measurement of Beta5 inhibition is performed in 384 well format based on fluorescence intensity assay.
(§1) Purified human constitutive proteasome (1.25 nM) and serial diluted compounds in DMSO (range of concentrations from 30 μM to 15 pM) or controls are incubated for 20 minutes or 120 minutes (long incubation) at 25° C. in assay buffer containing 50 mM Tris pH 7.4, 0.03% SDS, 1 mM EDTA and 1% DMSO. The reaction is initiated by the addition of the fluorogenic peptide substrate, Suc-LLVY-AMC (Bachem I-1395), at a concentration of 40 μM. After 60 minutes of incubation at 37° C., fluorescence intensity is measured at λex=350 nm and λem=450 nm with a fluorescence reader (Perkin Elmer Envision reader or equivalent).
(§2) Unless indicated otherwise the results are obtained after incubation for 20 minutes.

[2] = biological target: LMP7 (purified human immunoproteasome) (Homo sapiens, UniProt P28062); assay: Determination of LMP7 activity (fluorescence intensity assay, Suc-LLVY-AMC); assay type: biochemical
Description: Determination of LMP7 Activity
Measurement of LMP7 inhibition is performed in 384 well format based on fluorescence intensity assay.
as §1, with “immunoproteasome (0.25” for “constitutive proteasome (1.25”
as §2

pIC50 ([1]; incubation for 20 minutes)	Selectivity LMP7 vs Beta5 ([1]; incubation for 20 minutes)	pIC50 ([2]; incubation for 20 minutes)	pIC50 ([1]; long incubation (120 min))	Selectivity LMP7 vs Beta5 ([1]; long incubation (120 min))	pIC50 ([2]; long incubation (120 min))	Structure (SMILES)
5.30 to 6.30	++++ (++++: 50 ≤ Selectivity < 70)	> 7.30	–	–	–	CCN(CCC(=O)N[C@@H](Cc1ccc(F)cc1)B(O)O)C(=O)c1ccc(C#N)cc1 [Compound No. 28, [(1R)-1-[3-[(4-cyanobenzoyl)-ethyl-amino]propanoylamino]-2-(4-fluorophenyl)ethyl]boronic acid]
5.30 to 6.30	++++ (++++: 50 ≤ Selectivity < 70)	> 7.30	–	–	–	CCN(CCC(=O)N[C@@H](Cc1ccc(F)cc1)B(O)O)C(=O)c1ccc(OC)cc1 [Compound No. 25, [(1R)-1-[3-[ethyl-(4-methoxybenzoyl)amino]propanoylamino]-2-(4-fluorophenyl)ethyl]boronic acid]
–	–	–	6.30 to 7.30	+++++ (+++++: Selectivity ≥ 70)	> 7.30	CCN(CCC(=O)N[C@@H](C[C@@H]1COc2ccccc21)B(O)O)C(=O)c1ccc(Cl)cc1 [Compound No. 42, [(1R)-1-[3-[(4-chlorobenzoyl)-ethyl-amino]propanoylamino]-2-[(3S)-2,3-dihydrobenzofuran-3-yl]ethyl]boronic acid]
–	–	–	< 5.30	+++++ (+++++: Selectivity ≥ 70)	6.30 to 7.30	CCN(CC(=O)N[C@@H](Cc1coc2c(C)cccc12)B(O)O)S(=O)(=O)c1ccc(C)cc1 [Compound No. 43, [(1R)-1-[[2-[ethyl(p-tolylsulfonyl)amino]acetyl]amino]-2-(7-methylbenzofuran-3-yl)ethyl]boronic acid]
6.30 to 7.30	+++ (+++: 30 ≤ Selectivity < 50)	> 7.30	–	–	–	Cc1ccc(C[C@H](NC(=O)CCN(c2ccccc2)S(C)(=O)=O)B(O)O)cc1 [Compound No. 3, [(1R)-1-[3-(N-methylsulfonylanilino)propanoylamino]-2-(p-tolyl)ethyl]boronic acid]
5.30 to 6.30	+++ (+++: 30 ≤ Selectivity < 50)	6.30 to 7.30	–	–	–	CCc1cccc(C[C@H](NC(=O)CCS(C)(=O)=O)B(O)O)c1 [Compound No. 20, [(1R)-2-(3-ethylphenyl)-1-(3-methylsulfonylpropanoylamino)ethyl]-boronic acid]
6.30 to 7.30	+++++ (+++++: Selectivity ≥ 70)	> 7.30	–	–	–	Cc1ccc(S(=O)(=O)N(C)CC(=O)N[C@@H](Cc2ccc(C)cc2C)B(O)O)cc1 [Compound No. 32, [(1R)-2-(2,4-dimethylphenyl)-1-[[2-[methyl(p-tolylsulfonyl)amino]-acetyl]amino]ethyl]boronic acid]
< 5.30	+++++ (+++++: Selectivity ≥ 70)	6.30 to 7.30	–	–	–	CCC(=O)N(CC)CC(=O)N[C@@H](Cc1ccc(C)cc1C)B(O)O [Compound No. 24, [(1R)-2-(2,4-dimethylphenyl)-1-[[2-[ethyl(propanoyl)amino]acetyl]-amino]ethyl]boronic acid]
< 5.30	++++ (++++: 50 ≤ Selectivity < 70)	6.30 to 7.30	–	–	–	CCN(CC(=O)N[C@@H](Cc1ccc(C)cc1C)B(O)O)C(=O)CSC [Compound No. 36, [(1R)-2-(2,4-dimethylphenyl)-1-[[2-[ethyl-(2-methylsulfanylacetyl)-amino]acetyl]amino]ethyl]boronic acid]
5.30 to 6.30	+++ (+++: 30 ≤ Selectivity < 50)	6.30 to 7.30	–	–	–	CCN(CCC(=O)N[C@@H](Cc1ccccc1)B(O)O)C(=O)c1ccccc1 [Compound No. 8, [(1R)-1-[3-[benzoyl(ethyl)amino]propanoylamino]-2-phenyl-ethyl]boronic acid]
< 5.30	+++ (+++: 30 ≤ Selectivity < 50)	6.30 to 7.30	–	–	–	CCN(CC(=O)N[C@@H](Cc1ccc(C)cc1C)B(O)O)C(=O)CCl [Compound No. 37, [(1R)-1-[[2-[(2-chloroacetyl)-ethyl-amino]acetyl]amino]-2-(2,4-dimethylphenyl)ethyl]boronic acid]
5.30 to 6.30	+++++ (+++++: Selectivity ≥ 70)	> 7.30	–	–	–	Cc1ccc(S(=O)(=O)N(CC(=O)N[C@@H](Cc2ccc(C)cc2C)B(O)O)C(C)C)cc1 [Compound No. 33, [(1R)-2-(2,4-dimethylphenyl)-1-[[2-[isopropyl(p-tolylsulfonyl)amino]-acetyl]amino]ethyl]boronic acid]
< 5.30	+++ (+++: 30 ≤ Selectivity < 50)	5.30 to 6.30	–	–	–	CCc1cccc(C[C@H](NC(=O)CCCC(=O)N(C)C)B(O)O)c1 [Compound No. 18, [(1R)-1-[[5-(dimethylamino)-5-oxo-pentanoyl]amino]-2-(3-ethylphenyl)ethyl]boronic acid]
6.30 to 7.30	++++ (++++: 50 ≤ Selectivity < 70)	> 7.30	–	–	–	CCN(CCC(=O)N[C@@H](Cc1ccc(F)cc1)B(O)O)C(=O)c1ccc(Cl)cc1 [Compound No. 26, [(1R)-1-[3-[(4-chlorobenzoyl)-ethyl-amino]propanoylamino]-2-(4-fluorophenyl)ethyl]boronic acid]
5.30 to 6.30	+++++ (+++++: Selectivity ≥ 70)	> 7.30	–	–	–	CCC(=O)N(CC(=O)N[C@@H](Cc1ccc(C)cc1C)B(O)O)c1ccccc1 [Compound No. 34, [(1R)-2-(2,4-dimethylphenyl)-1-[[2-(N-propanoylanilino)acetyl]amino]-ethyl]boronic acid]
< 5.30	+++ (+++: 30 ≤ Selectivity < 50)	5.30 to 6.30	–	–	–	CCC(=O)N(CC(=O)N[C@@H](Cc1ccsc1)B(O)O)c1ccccc1F [Compound No. 39, [(1R)-1-[[2-(2-fluoro-N-propanoyl-anilino)acetyl]amino]-2-(3-thienyl)ethyl]boronic acid]
–	–	–	5.30 to 6.30	+++++ (+++++: Selectivity ≥ 70)	> 7.30	Cc1ccc(S(=O)(=O)N(CC(=O)N[C@@H](C[C@@H]2COc3ccccc32)B(O)O)C(C)C)cc1 [Compound No. 41, [(1R)-2-[(3S)-2,3-dihydrobenzofuran-3-yl]-1-[[2-[isopropyl(p-tolylsulfonyl)amino]acetyl]amino]ethyl]boronic acid]
6.30 to 7.30	++++ (++++: 50 ≤ Selectivity < 70)	> 7.30	–	–	–	Cc1ccc(C[C@H](NC(=O)CN(c2ccccc2)S(=O)(=O)c2ccccc2)B(O)O)c(C)c1 [Compound No. 35, [(1R)-1-[[2-[N-(benzenesulfonyl)anilino]acetyl]amino]-2-(2,4-dimethylphenyl)ethyl]boronic acid]
5.30 to 6.30	+++++ (+++++: Selectivity ≥ 70)	> 7.30	–	–	–	CCN(CCC(=O)N[C@@H](Cc1ccc(C)cc1C)B(O)O)C(=O)c1ccc(C)cc1 [Compound No. 19, [(1R)-2-(2,4-dimethylphenyl)-1-[3-[ethyl-(4-methylbenzoyl)amino]-propanoylamino]-ethyl]boronic acid]
6.30 to 7.30	+++ (+++: 30 ≤ Selectivity < 50)	> 7.30	–	–	–	CCN(CCC(=O)N[C@@H](Cc1ccc(F)cc1)B(O)O)C(=O)c1ccc(C(F)(F)F)cc1 [Compound No. 27, [(1R)-1-[3-[ethyl-[4-(trifluoromethyl)benzoyl]amino]propanoylamino]-2-(4-fluorophenyl)ethyl]boronic acid]
5.30 to 6.30	+++++ (+++++: Selectivity ≥ 70)	> 7.30	–	–	–	CCN(CC(=O)N[C@@H](Cc1ccc(C)cc1C)B(O)O)S(=O)(=O)c1ccccc1C [Compound No. 29, [(1R)-2-(2,4-dimethylphenyl)-1-[[2-[ethyl(o-tolylsulfonyl)amino]acetyl]-amino]ethyl]boronic acid]
5.30 to 6.30	+++ (+++: 30 ≤ Selectivity < 50)	6.30 to 7.30	–	–	–	CC(C)N(CCC(=O)N[C@@H](Cc1ccccc1)B(O)O)C(=O)c1ccccc1 [Compound No. 9, [(1R)-1-[3-[benzoyl(isopropyl)amino]propanoylamino]-2-phenyl-ethyl]boronic acid]
5.30 to 6.30	+++ (+++: 30 ≤ Selectivity < 50)	> 7.30	–	–	–	CCN(CCC(=O)N[C@@H](Cc1ccccc1)B(O)O)C(=O)c1ccc(C)cc1 [Compound No. 14, [(1R)-1-[3-[ethyl-(4-methylbenzoyl)amino]propanoylamino]-2-phenyl-ethyl]boronic acid]
6.30 to 7.30	+++ (+++: 30 ≤ Selectivity < 50)	> 7.30	–	–	–	CCN(CC(=O)N[C@@H](Cc1ccc(C)cc1)B(O)O)S(=O)(=O)c1ccccc1 [Compound No. 16, [(1R)-1-[[2-[benzenesulfonyl(ethyl)amino]acetyl]amino]-2-(p-tolyl)ethyl]boronic acid]
–	–	–	< 5.30	–	5.30 to 6.30	CN(CC(=O)N[C@@H](Cc1ccsc1)B(O)O)C(=O)c1ccccc1C(F)(F)F [Compound No. 40, [(1R)-1-[[2-[methyl-[2-(trifluoromethyl)benzoyl]amino]acetyl]amino]-2-(3-thienyl)ethyl]boronic acid]
